Data on 1 substance can be found in patent US8143025B2, “Antibodies against vascular endothelial growth factor receptor-1” (ImClone LLC, priority 2004, dated 2012).

One test concerns HT-29 xenograft. Description: HT-29 colon cancer xenograft. Format: in vivo, mouse. The following applies: monotherapy, FIG. 26A. The method, then: (§1) Female athymic nu/nu mice, 6-8 weeks of age, were injected subcutaneously on the lateral dorsal surface with 0.4 mL volume of a suspension containing a human tumor cell line in media, diluted 1:1 with MATRIGEL™ (BD Biosciences). The cell lines used in xenograft models, with the cell doses indicated in parenthesis (10^6 cells/mouse), were: human colon carcinoma cell lines DLD-I (5), GEO (5) and HT-29 (5); human breast carcinoma cell lines DU4475 (2), MDA-MB-231 (5), MDA-MB-435 (5), and BT474 (5). When tumors reached approximately 200-300 mm^3, mice were randomized by tumor size and divided into treatment groups. Tumor growth was evaluated approximately twice weekly, with tumor volume calculated as π/6* (Length*Width^2), where Length=longest diameter and Width=diameter perpendicular to Length. Tumor dimensions were measured with calipers. T/C % was calculated as 100*(Final Treatment Tumor Volume/Initial Treatment Tumor Volume)/(Final Control Tumor Volume/Initial Control Tumor Volume).
(§2) 18F1 was diluted in 0.9% USP saline (Braun) or phosphate buffered saline (PBS) and administered intraperitoneally in a volume of 0.5 mL per mouse. The effect of treatment on tumor growth was analyzed using repeated measures analysis of variance (RM ANOVA), p<0.05 was considered significant.

The subject of the next test is DLD-I xenograft. Description: DLD-I colon cancer xenograft. The following applies: monotherapy, FIG. 26B. Format: in vivo, mouse. The method, then: as §1, §2
The subject of another test is DU4475 xenograft. Description: DU4475 breast tumor xenograft. Type of test: in vivo, mouse. How it is done: Athymic nude mice (Charles River Laboratories, Wilmington, Mass.) were injected subcutaneously in the left flank area with 2×10^6 of DU4475 cells or 5×10^6 of MDA-MB-231 and MDA-MB-435 cells mixed in Matrigel (Collaborative Research Biochemicals. Bedford, Mass.). In the DU4475 and MDA-MB-231 models, tumors were allowed to reach approximately 200 mm^3 in size and then mice were randomized into groups of 12-16 animals per group. Animals received i.p. administration of the anti-VEGFR-I antibody clones 6F9, 15F11, or 18F1 at a dose of 0.5 mg (MDA-MB-231) or 1 mg (DU4475) three times each week. In the MDA-MB-435 model, the tumor cells were implanted subcutaneously into mammary fat pad area in the mouse. After tumors grew to reach approximately 200 mm^3 in size, mice were randomized into groups of 15 animals per group and intraperitoneally administered with 0.5 mg per dose of 18F1 antibody three times each week. Mice in control groups received an equal volume of saline solution. Treatment of animals was continued for the duration of the experiment. Tumors were measured twice each week with calipers. Tumor volumes were calculated using the formula [π/6 (w1×w2×w2)], where “w1” represents the largest tumor diameter and “w2” represents the smallest tumor diameter. Female athymic nu/nu mice, 6-8 weeks of age, were injected subcutaneously on the lateral dorsal surface with 0.4 mL volume of a suspension containing a human tumor cell line in media, diluted 1:1 with MATRIGEL™ (BD Biosciences). The cell lines used in xenograft models, with the cell doses indicated in parenthesis (10^6 cells/mouse), were: human colon carcinoma cell lines DLD-I (5), GEO (5) and HT-29 (5); human breast carcinoma cell lines DU4475 (2), MDA-MB-231 (5), MDA-MB-435 (5), and BT474 (5). When tumors reached approximately 200-300 mm^3, mice were randomized by tumor size and divided into treatment groups. Tumor growth was evaluated approximately twice weekly, with tumor volume calculated as π/6* (Length*Width^2), where Length=longest diameter and Width=diameter perpendicular to Length. Tumor dimensions were measured with calipers. T/C % was calculated as 100*(Final Treatment Tumor Volume/Initial Treatment Tumor Volume)/(Final Control Tumor Volume/Initial Control Tumor Volume). 18F1 was diluted in 0.9% USP saline (Braun) or phosphate buffered saline (PBS) and administered intraperitoneally in a volume of 0.5 mL per mouse. The effect of treatment on tumor growth was analyzed using repeated measures analysis of variance (RM ANOVA), p<0.05 was considered significant. 18F1 was used in combination with an antibody to mouse VEGFR-I, MF1. […] AU treatments were administered i.p. The effect of treatments on tumor growth were analyzed using repeated measures analysis of variance (RM ANOVA), p<0.05 was considered significant.

In a further test the test system is Akt. Description: Akt phosphorylation Western blot, BT474 cells. Type of test: cell-based, human. The following applies: BT474 breast cancer cells, FIG. 15. The method, then: Autophosphorylation of the VEGFR-I induced by its ligands and resulting activation of a classical MAPK, extracellular signal-regulated protein kinases 1Z2 (ERK1Z2) and the PBK/Atk downstrean signaling pathways mediate cellular biological responses such as proliferation, motility, survival, and differentiation. The ability of an anti-VEGFR-1 antibody to inhibit phosphorylation of VEGFR-I and activation of ERK1 Z2 and the Akt kinases downstream signaling were determined by using the PAE-VEGFR-I transfectant and BT474 breast carcinoma cells.
For evaluation of MAPK and Akt phosphorylation, BT474 cells were seeded at a density of 5×10^5/well in 12 well plates in serum-free conditions for 18 hours. Cells were treated at 37° C. with anti-VEGFR-1 antibody clone 18F1 or isotype control for 1 hour and then incubated with 50 ng/ml of VEGF or 100 ng/ml of PlGF for 5-10 minutes. Cell lysis, protein isolation and electroblotting were performed. Membranes were incubated with antibodies against phosphorylated p44/p42 MAP kinases (Thr202/Tyr204, Santa Cruz Biotechnology, Santa Cruz, Calif.) or phosphorylated Akt (Ser473, Cell Signaling Technology, Beverly, Mass.), at a concentration of 1 μg/ml, followed by incubation with a secondary IgG-HRP (1:5000). […]

Turning to “18F1: human anti-VEGFR-1 monoclonal antibody clone; VL SEQ ID NO: 16, VH SEQ ID NO: 20 [Clone 18F1]”, the “antitumor effect against HT-29 colon cancer xenografts” value in the test on HT-29 xenograft was “significant antitumor effect”. In addition, the “antitumor effect against DLD-I colon cancer xenografts” value in the test with DLD-I xenograft is reported as “significant antitumor effect”. Besides, the “tumor growth of the DU4475 xenograft” value with DU4475 xenograft (1 mg per dose three times each week i.p., p<0.05, FIGS. 19A-B) is given as “statistically significant suppression”; in the test on DU4475 xenograft (0.5 or 1 mg per dose three times each week, ANOVA p<0.05, FIG. 20A), “statistically significant suppression”. For the same substance, the “growth of DU4475 xenograft tumors” value in the test on DU4475 xenograft (Example 9, intraperitoneal, p<0.05, FIG. 25A) is “significantly (p<0.05) suppressed”. Besides, in the test on DU4475 xenograft (Example 11, p<0.05, FIG. 28B), the “tumor growth inhibition, DU4475 xenograft” value is “significant tumor growth inhibition”. Besides, the “PlGF or VEGF-stimulated phosphorylation of Akt” value with Akt was “significantly blocked”.
